Results reported in patent publication US10597388B2, “Pyridazinone herbicides” (FMC CORPORATION, priority 2014, dated 2020).

Legend:
Type in all cases: in vivo
[1] = system: pigweed (Amaranthus retroflexus); experiment: Test A greenhouse herbicide test, pre- and postemergence
Text: (§1) Seeds of plant species selected from barnyardgrass (Echinochloa crus-galli), kochia (Kochia scoparia), ragweed (common ragweed, Ambrosia elatior), ryegrass, Italian (Italian ryegrass, Lolium multiflorum), crabgrass, large (large crabgrass, Digitaria sanguinalis), foxtail, giant (giant foxtail, Setaria faberii), momingglory (Ipomoea spp.), pigweed (Amaranthus retroflexus), velvetleaf (Abutilon theophrasti), wheat (Triticum aestivum), and corn (Zea mays) were planted into a blend of loam soil and sand and treated preemergence with a directed soil spray using test chemicals formulated in a non-phytotoxic solvent mixture which included a surfactant.
(§2) At the same time, plants selected from these crop and weed species and also blackgrass (Alopecurus myosuroides), and galium (catchweed bedstraw, Galium aparine) were planted in pots containing the same blend of loam soil and sand and treated with postemergence applications of test chemicals formulated in the same manner. Plants ranged in height from 2 to 10 cm and were in the one- to two-leaf stage for the postemergence treatment. Treated plants and untreated controls were maintained in a greenhouse for approximately 10 d, after which time all treated plants were compared to untreated controls and visually evaluated for injury. Plant response ratings, summarized in Table A, are based on a 0 to 100 scale where 0 is no effect and 100 is complete control. A dash (-) response means no test result.

corn (Zea mays) = experiment: as above; settings: Postemergence; for Corn plant response rating: 0 to 100 scale, 0 is no effect, 100 is complete control
Text: as §1, §2

[2] = system: ragweed (common ragweed, Ambrosia elatior); experiment: as above
Text: as §1, §2

[3] = system: ryegrass, Italian (Italian ryegrass, Lolium multiflorum); experiment: as above
Text: as §1, §2

[4] = system: wheat (Triticum aestivum); experiment: as above; settings: Postemergence; for Wheat plant response rating: 0 to 100 scale, 0 is no effect, 100 is complete control
Text: as §1, §2

kochia (Kochia scoparia) = experiment: as above
Text: as §1, §2

[5] = system: foxtail, giant (giant foxtail, Setaria faberii); experiment: as above
Text: as §1, §2

[6] = system: barnyardgrass (Echinochloa crus-galli); experiment: as above
Text: as §1, §2

[7] = system: galium (catchweed bedstraw, Galium aparine); experiment: Test A greenhouse herbicide test, postemergence; settings: for Galium plant response rating: 0 to 100 scale, 0 is no effect, 100 is complete control
Text: as §2

[8] = system: blackgrass (Alopecurus myosuroides); experiment: Test A greenhouse herbicide test, postemergence; settings: for Blackgrass plant response rating: 0 to 100 scale, 0 is no effect, 100 is complete control
Text: as §2

[9] = Postemergence, 125 g ai/ha, visual rating after approx. 10 d, 0 to 100 scale (0 no effect, 100 complete control)
[10] = Postemergence, 500 g ai/ha, 0 to 100 scale, 0 is no effect, 100 is complete control
[11] = Preemergence, 125 g ai/ha, 0 to 100 scale where 0 is no effect and 100 is complete control
[12] = Preemergence, 500 g ai/ha, 0 to 100 scale, 0 no effect, 100 complete control
[13] = 125 g ai/ha, visual rating after approx. 10 d, 0 to 100 scale (0 no effect, 100 complete control)
[14] = Postemergence, 125 g ai/ha, 0 to 100 scale where 0 is no effect and 100 is complete control
[15] = 125 g ai/ha, 0 to 100 scale where 0 is no effect and 100 is complete control
[16] = Preemergence, 500 g ai/ha, 0 to 100 scale where 0 is no effect and 100 is complete control
[17] = Postemergence, 500 g ai/ha, visual rating after approx. 10 d, 0 to 100 scale (0 no effect, 100 complete control)
[18] = 500 g ai/ha, visual rating after approx. 10 d, 0 to 100 scale (0 no effect, 100 complete control)

SMILES: CCc1ccc2ccccc2c1-c1c(OC(=O)C2CC2)c(C)nn(C)c1=O [Compound 38]
- Plant response rating, Pigweed [1, 9]: 50
- Pigweed plant response rating [1, 10]: 50
- Pigweed plant response rating [1, 11]: 0
- Plant response rating, Pigweed [1, 12]: 80
- Plant response rating, Corn (corn (Zea mays); [13]): 0
- Corn plant response rating (corn (Zea mays); 500 g ai/ha): 10
- Plant response rating, Ragweed [2, 9]: 40
- Ragweed plant response rating [2, 10]: 70
- Ragweed plant response rating [2, 11]: 0
- Plant response rating, Ragweed [2, 12]: 70
- Plant response rating, Ryegrass, Italian [3, 14]: 0
- Ryegrass, Italian plant response rating [3, 10]: 50
- Ryegrass, Italian plant response rating [3, 11]: 40
- Plant response rating, Ryegrass, Italian [3, 12]: 70
- Plant response rating, Wheat [4, 15]: 10
- Wheat plant response rating ([4]; 500 g ai/ha): 20
- Plant response rating, Kochia (kochia (Kochia scoparia); [9]): 30
- Kochia plant response rating (kochia (Kochia scoparia); [10]): 80
- Kochia plant response rating (kochia (Kochia scoparia); [11]): 40
- Plant response rating, Kochia (kochia (Kochia scoparia); [12]): 40
- Plant response rating, Foxtail, Giant [5, 9]: 0
- Foxtail, Giant plant response rating [5, 10]: 50
- Foxtail, Giant plant response rating [5, 11]: 0
- Plant response rating, Foxtail, Giant [5, 12]: 40
- Plant response rating, Barnyardgrass [6, 9]: 0
- Barnyardgrass plant response rating [6, 10]: 40
- Barnyardgrass plant response rating [6, 11]: 0
- Plant response rating, Barnyardgrass [6, 12]: 10
- Plant response rating, Galium [7, 13]: 80
- Galium plant response rating ([7]; 500 g ai/ha): 100
- Plant response rating, Blackgrass [8, 13]: 50
- Blackgrass plant response rating ([8]; 500 g ai/ha): 60

SMILES: CCc1nn(C)c(=O)c(-c2c(C)oc3ccc(Cl)cc23)c1O [Compound 77]
- Plant response rating, Pigweed [1, 14]: 0
- Pigweed plant response rating [1, 10]: 0
- Pigweed plant response rating [1, 11]: 0
- Plant response rating, Pigweed [1, 16]: 0
- Plant response rating, Corn (corn (Zea mays); [15]): 0
- Corn plant response rating (corn (Zea mays); 500 g ai/ha): 0
- Plant response rating, Ragweed [2, 14]: 0
- Ragweed plant response rating [2, 10]: 0
- Ragweed plant response rating [2, 11]: 0
- Plant response rating, Ragweed [2, 16]: 0
- Plant response rating, Ryegrass, Italian [3, 14]: 20
- Ryegrass, Italian plant response rating [3, 10]: 60
- Ryegrass, Italian plant response rating [3, 11]: 10
- Plant response rating, Ryegrass, Italian [3, 16]: 40
- Plant response rating, Wheat [4, 15]: 0
- Wheat plant response rating ([4]; 500 g ai/ha): 0
- Plant response rating, Kochia (kochia (Kochia scoparia); [14]): 0
- Kochia plant response rating (kochia (Kochia scoparia); [10]): 10
- Kochia plant response rating (kochia (Kochia scoparia); [11]): 0
- Plant response rating, Kochia (kochia (Kochia scoparia); [16]): 0
- Plant response rating, Foxtail, Giant [5, 14]: 0
- Foxtail, Giant plant response rating [5, 10]: 0
- Foxtail, Giant plant response rating [5, 11]: 0
- Plant response rating, Foxtail, Giant [5, 16]: 10
- Plant response rating, Barnyardgrass [6, 14]: 0
- Barnyardgrass plant response rating [6, 10]: 0
- Barnyardgrass plant response rating [6, 11]: 0
- Plant response rating, Barnyardgrass [6, 12]: 10
- Plant response rating, Galium [7, 15]: 20
- Galium plant response rating ([7]; 500 g ai/ha): 60
- Plant response rating, Blackgrass [8, 15]: 0
- Blackgrass plant response rating ([8]; 500 g ai/ha): 0

SMILES: Cc1nn(C)c(=O)c(-c2cccc3ccc(I)cc23)c1O [Compound 70]
- Plant response rating, Pigweed [1, 14]: 80
- Pigweed plant response rating [1, 10]: 80
- Pigweed plant response rating [1, 11]: 60
- Plant response rating, Pigweed [1, 16]: 100
- Plant response rating, Corn (corn (Zea mays); [15]): 0
- Corn plant response rating (corn (Zea mays); 500 g ai/ha): 0
- Plant response rating, Ragweed [2, 14]: 40
- Ragweed plant response rating [2, 10]: 70
- Ragweed plant response rating [2, 11]: 70
- Plant response rating, Ragweed [2, 16]: 80
- Plant response rating, Ryegrass, Italian [3, 14]: 60
- Ryegrass, Italian plant response rating [3, 10]: 80
- Ryegrass, Italian plant response rating [3, 11]: 60
- Plant response rating, Ryegrass, Italian [3, 16]: 90
- Plant response rating, Wheat [4, 15]: 0
- Wheat plant response rating ([4]; 500 g ai/ha): 0
- Plant response rating, Kochia (kochia (Kochia scoparia); [14]): 50
- Kochia plant response rating (kochia (Kochia scoparia); [10]): 60
- Kochia plant response rating (kochia (Kochia scoparia); [11]): 10
- Plant response rating, Kochia (kochia (Kochia scoparia); [16]): 40
- Plant response rating, Foxtail, Giant [5, 14]: 30
- Foxtail, Giant plant response rating [5, 10]: 25
- Foxtail, Giant plant response rating [5, 11]: 0
- Plant response rating, Foxtail, Giant [5, 16]: 30
- Plant response rating, Barnyardgrass [6, 14]: 0
- Barnyardgrass plant response rating [6, 10]: 10
- Barnyardgrass plant response rating [6, 11]: 0
- Plant response rating, Barnyardgrass [6, 12]: 30
- Plant response rating, Galium [7, 15]: 70
- Galium plant response rating ([7]; 500 g ai/ha): 90
- Plant response rating, Blackgrass [8, 15]: 10
- Blackgrass plant response rating ([8]; 500 g ai/ha): 30

SMILES: Cc1ccc2ccccc2c1-c1c(OS(C)(=O)=O)cnn(C)c1=O [Compound 142]
- Plant response rating, Pigweed [1, 14]: 20
- Plant response rating, Pigweed [1, 17]: 50
- Pigweed plant response rating [1, 11]: 60
- Plant response rating, Pigweed [1, 16]: 50
- Plant response rating, Corn (corn (Zea mays); [15]): 0
- Plant response rating, Corn (corn (Zea mays); [18]): 0
- Plant response rating, Ragweed [2, 14]: 0
- Plant response rating, Ragweed [2, 17]: 20
- Plant response rating, Ragweed [2, 16]: 40
- Plant response rating, Ryegrass, Italian [3, 14]: 80
- Plant response rating, Ryegrass, Italian [3, 17]: 90
- Plant response rating, Ryegrass, Italian [3, 16]: 80
- Plant response rating, Wheat [4, 15]: 0
- Plant response rating, Wheat [4, 18]: 0
- Plant response rating, Kochia (kochia (Kochia scoparia); [14]): 0
- Plant response rating, Kochia (kochia (Kochia scoparia); [17]): 20
- Kochia plant response rating (kochia (Kochia scoparia); [11]): 0
- Plant response rating, Kochia (kochia (Kochia scoparia); [16]): 0
- Plant response rating, Foxtail, Giant [5, 14]: 10
- Plant response rating, Foxtail, Giant [5, 17]: 20
- Foxtail, Giant plant response rating [5, 11]: 10
- Plant response rating, Foxtail, Giant [5, 16]: 60
- Plant response rating, Barnyardgrass [6, 14]: 10
- Plant response rating, Barnyardgrass [6, 17]: 20
- Barnyardgrass plant response rating [6, 11]: 10
- Plant response rating, Barnyardgrass [6, 16]: 70
- Plant response rating, Galium [7, 15]: 70
- Plant response rating, Galium [7, 18]: 80
- Plant response rating, Blackgrass [8, 15]: 10
- Plant response rating, Blackgrass [8, 18]: 20

SMILES: CC(=O)Oc1cnn(C)c(=O)c1-c1c(C)sc2ccccc12 [Compound 120]
- Plant response rating, Pigweed [1, 14]: 20
- Plant response rating, Pigweed [1, 17]: 50
- Pigweed plant response rating [1, 11]: 0
- Plant response rating, Pigweed [1, 16]: 70
- Plant response rating, Corn (corn (Zea mays); [15]): 0
- Plant response rating, Corn (corn (Zea mays); [18]): 0
- Plant response rating, Ragweed [2, 14]: 0
- Plant response rating, Ragweed [2, 17]: 10
- Ragweed plant response rating [2, 11]: 0
- Plant response rating, Ragweed [2, 16]: 30
- Plant response rating, Ryegrass, Italian [3, 14]: 20
- Plant response rating, Ryegrass, Italian [3, 17]: 80
- Ryegrass, Italian plant response rating [3, 11]: 30
- Plant response rating, Ryegrass, Italian [3, 16]: 30
- Plant response rating, Wheat [4, 15]: 0
- Plant response rating, Wheat [4, 18]: 0
- Plant response rating, Kochia (kochia (Kochia scoparia); [14]): 0
- Plant response rating, Kochia (kochia (Kochia scoparia); [17]): 30
- Kochia plant response rating (kochia (Kochia scoparia); [11]): 0
- Plant response rating, Kochia (kochia (Kochia scoparia); [16]): 0
- Plant response rating, Foxtail, Giant [5, 14]: 0
- Plant response rating, Foxtail, Giant [5, 17]: 10
- Foxtail, Giant plant response rating [5, 11]: 0
- Plant response rating, Foxtail, Giant [5, 16]: 20
- Plant response rating, Barnyardgrass [6, 14]: 0
- Plant response rating, Barnyardgrass [6, 17]: 10
- Barnyardgrass plant response rating [6, 11]: 0
- Plant response rating, Barnyardgrass [6, 16]: 30
- Plant response rating, Galium [7, 15]: 40
- Plant response rating, Galium [7, 18]: 70
- Plant response rating, Blackgrass [8, 15]: 0
- Plant response rating, Blackgrass [8, 18]: 10
